One may read the EC50 as the concentration at which the effect is half-maximal. For orientation: IC50 means the concentration that inhibits the measured activity by half. A low value points to greater potency in that assay.

In the first assay the target is T1, PTK2-phosphorylation at tyrosine 397 (pY397) (Homo sapiens, UniProt Q05397).
T1 construct: endogenous in cells; host or cells: PC-3 (ATCC CRL-1435)
T1 sequence (Q05397 whole entry): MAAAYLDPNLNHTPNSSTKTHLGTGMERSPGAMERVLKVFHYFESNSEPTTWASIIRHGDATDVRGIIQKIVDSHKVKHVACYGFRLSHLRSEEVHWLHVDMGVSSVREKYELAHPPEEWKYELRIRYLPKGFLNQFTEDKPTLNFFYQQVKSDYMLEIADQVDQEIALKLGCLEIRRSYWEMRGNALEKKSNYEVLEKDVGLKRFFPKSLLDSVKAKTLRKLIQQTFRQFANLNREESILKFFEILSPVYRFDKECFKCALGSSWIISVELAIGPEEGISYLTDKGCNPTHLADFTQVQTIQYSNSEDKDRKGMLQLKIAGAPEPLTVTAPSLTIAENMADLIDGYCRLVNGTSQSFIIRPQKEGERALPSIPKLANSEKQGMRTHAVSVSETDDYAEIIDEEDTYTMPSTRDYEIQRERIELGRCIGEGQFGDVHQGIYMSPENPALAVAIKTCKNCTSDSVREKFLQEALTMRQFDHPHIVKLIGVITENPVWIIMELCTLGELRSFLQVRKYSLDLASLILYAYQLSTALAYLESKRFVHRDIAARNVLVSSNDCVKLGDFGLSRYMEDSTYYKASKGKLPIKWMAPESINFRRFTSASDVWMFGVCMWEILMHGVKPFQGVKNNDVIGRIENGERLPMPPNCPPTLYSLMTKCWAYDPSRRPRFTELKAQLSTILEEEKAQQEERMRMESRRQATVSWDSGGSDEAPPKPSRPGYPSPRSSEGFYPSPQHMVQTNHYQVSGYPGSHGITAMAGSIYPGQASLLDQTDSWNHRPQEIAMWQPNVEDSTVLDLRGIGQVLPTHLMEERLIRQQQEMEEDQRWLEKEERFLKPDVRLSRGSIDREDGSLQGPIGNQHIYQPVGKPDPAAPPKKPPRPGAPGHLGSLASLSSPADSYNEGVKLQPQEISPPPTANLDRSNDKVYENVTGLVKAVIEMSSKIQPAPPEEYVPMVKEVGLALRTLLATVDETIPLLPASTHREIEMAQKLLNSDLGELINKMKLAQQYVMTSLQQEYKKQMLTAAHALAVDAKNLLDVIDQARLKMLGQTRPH
The assay is described as follows: Phospho-PTK2 (pY397) Assay in PC-3 cells. The format is cell-based. As to conditions: PC-3 prostate carcinoma cells, 2 h incubation; read-out: PC3pPTK2 Y397 EC50. How it is done: This cellular test is used to determine the influence of PTK2-inhibitors on the state of the PTK2-phosphorylation at tyrosine 397 (pY397).
PC-3 cells (prostate carcinoma, ATCC CRL-1435) are grown in cell culture flasks (175 cm^2) with F12 Kaighn's Medium (Gibco, No.: 21127) with the addition of 10% foetal calf serum (Invitrogen, No.: 16000-044). The cultures are incubated in the incubator at 37° C. and 5% CO2 and run twice a week.
For the test, 2×10^4 cells pro well/[…] are plated out in 96-well microtitre plates (Costar, No.: 3598) and incubated overnight in the incubator at 37° C. and 5% CO2. The test compounds (10 μL from serial dilution) are added the next day. The concentration of the test compounds usually covers a range of 50 μM and 0.8 nM. The test compounds (stock solution: 10 mM in 100% DMSO) are diluted in medium/medium 10% DMSO such that the final concentration is 1% DMSO. The cells are then incubated in the incubator at 37° C. and 5% CO2 for 2 h. Then the culture supernatant is removed and the cells are fixed with 150 μL 4% formaldehyde in D-PBS for 20 min at RT. The cell lawn is washed five times with 200 μL 0.1% Triton X-100 in D-PBS for 5 min in each case and then incubated for 90 min with blocking buffer (5% skimmed milk powder (Maresi Fixmilch) in TBST (25 mM Tris/HCl, pH 8.0, 150 mM NaCl, 0.05% Tween 20). The blocking buffer is replaced by 50 μL of the first antibody anti-phospho PTK2 [pY397] rabbit monoclonal (Invitrogen/Biosource, No.: 44-625G), which is diluted 1:200 in blocking buffer. For control purposes, alternatively a PTK2 [total] antibody (clone 4.47 mouse monoclonal, Upstate, No.: 05-537), diluted 1:400 in blocking buffer is used. This incubation is carried out at 4° C. overnight. Then the cell lawn is washed five times with 100 μL of 0.1% Tween in D-PBS for 5 min in each case and 50 μL/well of second antibody are added. In order to detect bound phospho-PTK2 [pY397] antibody a goat-anti-rabbit antibody is used which is coupled with horseradish peroxidase (Dako, No.: P0448; 1:500 dilution in blocking buffer). In order to detect bound PTK2 [total]-antibodies a rabbit-anti-mouse antibody is used, which is also coupled with horseradish peroxidase (Dako, No.: PO161; 1:1000 dilution in blocking buffer). This incubation is carried out for 1 h at RT with gentle shaking. The cell lawn is then again washed five times with 100 μL of 0.1% Tween in D-PBS for 5 min in each case. […] The EC50 values are determined from concentration-activity analyses by iterative calculation with the aid of a sigmoidal curve analysis algorithm (FIFTY, based on GraphPAD Prism Version 3.03) with a variable Hill coefficient.
As for `CCN1CCC(NC(=O)c2cc(OC)c(Nc3ncc(C(F)(F)F)c(NCc4ccc(C)cc4N(C)S(C)(=O)=O)n3)cc2F)CC1` [Example 1], the EC50 is 0.05 nM.
As for `COc1cc(C(=O)NCCN(C)C)ccc1Nc1ncc(C(F)(F)F)c(NCc2ccc(C)cc2N(C)S(C)(=O)=O)n1` [Example 4], the EC50 is 0.11 nM.
With `CCN1CCC(NC(=O)c2ccc(Nc3ncc(C(F)(F)F)c(NCc4ccc(C)cc4N(C)S(C)(=O)=O)n3)c(OC)c2)CC1` [Example 8], the 50% effective concentration (EC50) stood at 0.14 nM.
The same measure, in the same setting: for `CCN1CCC[C@H]1CNC(=O)c1ccc(Nc2ncc(C(F)(F)F)c(NCc3ccc(C)cc3N(C)S(C)(=O)=O)n2)c(OC)c1` [Example 45] the value was 0.44 nM; for `COC(=O)Nc1cc(OC)c(Nc2ncc(C(F)(F)F)c(NCc3ccc(OC)cc3N(C)S(C)(=O)=O)n2)cc1C` [Example 125], 3 nM; for `COc1ccc(CNc2nc(Nc3cc(F)c(C(=O)NC4CCN(C)CC4)cc3OC)ncc2C(F)(F)F)c(N(C)S(C)(=O)=O)c1` [Example 40], 0.37 nM.
As for `COc1cc(C(=O)NC2CC(N3CCOCC3)C2)ccc1Nc1ncc(C(F)(F)F)c(NCc2ccc(C)cc2N(C)S(C)(=O)=O)n1` (centres unmarked) [Example 71], the concentration giving a half-maximal response (EC50) was 0.74 nM.
On to `COc1cc(C(=O)NC2CCOC2)ccc1Nc1ncc(C(F)(F)F)c(NCc2ccc(C)cc2N(C)S(C)(=O)=O)n1` (centres unmarked) [Example 64], for which the EC50 is 0.67 nM.
On to `COc1cc(NC(C)=O)c(C)cc1Nc1ncc(C(F)(F)F)c(NCc2ccc(C)cc2N(C)S(C)(=O)=O)n1` [Example 68], for which the EC50 stood at 0.72 nM.
`COc1cc(Nc2ncc(C(F)(F)F)c(NCc3ccc(C)cc3N(C)S(C)(=O)=O)n2)ccc1NC(C)=O` [Example 103]: the EC50 turned out to be 2 nM.
As to `CCc1cc(C(=O)NC2CCN(CC)CC2)ccc1Nc1ncc(C(F)(F)F)c(NCc2ccc(C)cc2N(C)S(C)(=O)=O)n1` [Example 101], the EC50 worked out at 2 nM.
On to `COc1cc(CNC2CCCC2)ccc1Nc1ncc(C(F)(F)F)c(NCc2ccc(C)cc2N(C)S(C)(=O)=O)n1` [Example 63], for which the concentration for a half-maximal effect (EC50) was 0.63 nM.
On the same count and under the same terms, the result for `COc1cc(C(=O)NC2CCN(C3COC3)CC2)c(F)cc1Nc1ncc(C(F)(F)F)c(NCc2ccc(C)cc2N(C)S(C)(=O)=O)n1` [Example 93] reads 2 nM.

For the next assay, the target named is T2, PTK2 (Homo sapiens, UniProt Q05397).
T2 construct: purchased Invitrogen PV3832
T2 sequence (Q05397 whole entry): as above
In words: PTK2 Enzyme Test (DELFIA assay, poly-Glu-Tyr substrate). In kind it is biochemical. As to conditions: active PTK2 enzyme, 50 μM ATP in ATP Mix, 1 h pre-incubation. How it is done:
This test uses active PTK2 enzyme (Invitrogen Code PV3832) and poly-Glu-Tyr (4:1, Sigma P-0275) as the kinase substrate. The kinase activity is detected by means of the phosphorylation of the substrate in a DELFIA™ assay. The phosphorylated substrate is detected with the Europium-labelled phosphotyrosine antibody PY20 (Perkin Elmer, No.: AD0038).
In order to determine concentration-activity curves with PTK2-inhibitors the compounds are serially diluted in 10% DMSO/H2O and 10 μL of each dilution are dispensed per well in a 96-well microtitre plate (clear U-shaped base plate, Greiner No. 650101) (the inhibitors are tested in duplicates) and mixed with 10 μL/well of PTK2 kinase (0.01 μg/well). PTK2 kinase is diluted accordingly beforehand with kinase dilution buffer (20 mM TRIS/HCl pH 7.5, 0.1 mM EDTA, 0.1 mM EGTA, 0.286 mM sodium orthovanadate, 10% glycerol with the addition of freshly prepared BSA (fraction V 1 mg/mL) and DTT (1 mM)). The test compound and the PTK2 kinase are pre-incubated for 1 h at RT and shaken at 500 rpm. Then 20 μL ATP Mix (30 mM TRIS/HCl pH 7.5, 0.02% Brij, 0.2 mM sodium orthovanadate, 10 mM magnesium acetate, 0.1 mM EGTA, 1× Phosphatase Inhibitor Cocktail 1 (Sigma, No.: P2850), 50 μM ATP (Sigma, No.: A3377; 15 mM stock solution)) are added. The reaction is started by the addition of 10 μL/well of poly (Glu,Tyr) substrate (25 μg/well poly (Glu,Tyr), 0.05 μg/well biotinylated poly (Glu,Tyr) dissolved in 250 mM TRIS/HCl pH 7.5, 9 mM DTT)—the final concentration of DMSO is 2%. After 1 h kinase reaction (the plates are shaken at 500 rpm), the reaction is stopped by the addition of 12 μL/well of 100 mM EDTA, pH 8. And shaken for a further 5 min at RT (500 U/min).
55 μL of the reaction mixture are transferred into a streptavidin plate (Strepta Well High Bind (transparent, 96-well) made by Roche, No.: 11989685001) and incubated for 1 h at RT (shaking at 500 rpm). Then the microtitre plate is washed three times with 200 μL/well D-PBS (Invitrogen, No.:14190). 100 μL of 1:2000 diluted DELFIA Eu-N1 Anti-Phosphotyrosine PY20 antibody (Perkin Elmer, No.: AD0038, 1:2000 diluted in DELFIA test buffer (Perkin Elmer, No.: 1244-111)) is then added and it is incubated for 1 h at RT (shaking at 500 rpm). Then the plate is washed three times with 200 μL/well DELFIA washing buffer (Perkin Elmer, No.: 1244-114), 200 μL/well strengthening solution (Perkin Elmer, No.: 1244-105) is added and the whole is incubated for 10 min at RT (shaking at 300 rpm).
The time-delayed europium fluorescence is then measured in a microtitre plate reader (Victor, Perkin Elmer). The positive control consists of wells that contain solvent (2% DMSO in test buffer) and display uninhibited kinase activity. Wells that contain test buffer instead of enzyme act as a control for the background kinase activity.
The IC50 values are determined from concentration-activity analyses by iterative calculation using a sigmoidal curve analysis algorithm (FIFTY, based on GraphPAD Prism Version 3.03) with a variable Hill coefficient.
`CCN1CCC(NC(=O)c2cc(OC)c(Nc3ncc(C(F)(F)F)c(NCc4ccc(C)cc4N(C)S(C)(=O)=O)n3)cc2F)CC1` [Example 1] returned an IC50 of 2 nM.
For `COc1cc(C(=O)NCCN(C)C)ccc1Nc1ncc(C(F)(F)F)c(NCc2ccc(C)cc2N(C)S(C)(=O)=O)n1` [Example 4], the concentration for half-maximal inhibition (IC50) was 1 nM.
`CCN1CCC(NC(=O)c2ccc(Nc3ncc(C(F)(F)F)c(NCc4ccc(C)cc4N(C)S(C)(=O)=O)n3)c(OC)c2)CC1` [Example 8] yielded an IC50 of 2 nM.
Consider `CCN1CCC[C@H]1CNC(=O)c1ccc(Nc2ncc(C(F)(F)F)c(NCc3ccc(C)cc3N(C)S(C)(=O)=O)n2)c(OC)c1` [Example 45], for which the half-inhibitory concentration (IC50) amounted to 3 nM.
Regarding `COC(=O)Nc1cc(OC)c(Nc2ncc(C(F)(F)F)c(NCc3ccc(OC)cc3N(C)S(C)(=O)=O)n2)cc1C` [Example 125], 5 nM corresponded to half-maximal inhibition (IC50).
With `COc1ccc(CNc2nc(Nc3cc(F)c(C(=O)NC4CCN(C)CC4)cc3OC)ncc2C(F)(F)F)c(N(C)S(C)(=O)=O)c1` [Example 40], the half-maximal inhibitory concentration (IC50) stood at 1 nM.
Still for that read-out and setting: for `COc1cc(C(=O)NC2CC(N3CCOCC3)C2)ccc1Nc1ncc(C(F)(F)F)c(NCc2ccc(C)cc2N(C)S(C)(=O)=O)n1` (centres unmarked) [Example 71] the value was 3 nM; for `COc1cc(C(=O)NC2CCOC2)ccc1Nc1ncc(C(F)(F)F)c(NCc2ccc(C)cc2N(C)S(C)(=O)=O)n1` (centres unmarked) [Example 64], 3 nM; for `COc1cc(NC(C)=O)c(C)cc1Nc1ncc(C(F)(F)F)c(NCc2ccc(C)cc2N(C)S(C)(=O)=O)n1` [Example 68], 2 nM.
For `COc1cc(Nc2ncc(C(F)(F)F)c(NCc3ccc(C)cc3N(C)S(C)(=O)=O)n2)ccc1NC(C)=O` [Example 103], the half-maximal inhibitory concentration (IC50) was found to be 0.8 nM.
The same measure, in the same setting: for `CCc1cc(C(=O)NC2CCN(CC)CC2)ccc1Nc1ncc(C(F)(F)F)c(NCc2ccc(C)cc2N(C)S(C)(=O)=O)n1` [Example 101] the value was 2 nM; for `COc1cc(CNC2CCCC2)ccc1Nc1ncc(C(F)(F)F)c(NCc2ccc(C)cc2N(C)S(C)(=O)=O)n1` [Example 63], 3 nM.
Same read-out and setting: for `COc1cc(C(=O)NC2CCN(C3COC3)CC2)c(F)cc1Nc1ncc(C(F)(F)F)c(NCc2ccc(C)cc2N(C)S(C)(=O)=O)n1` [Example 93] the value was 5 nM.
